The values that follow come from patent US10988523B2, “Modified lipidated Relaxin B chain peptides and their therapeutic use” (Sanofi, priority 2018, dated 2021).

Like-named read-outs stand apart in the source and are kept apart here. *1 amine or outer side, *2 acyl side, *3 side chain or, on linkers, in order; H or OH if unused. Where a SMILES comes first, the peptide text is derived from it. Side-chain parts run from the residue outwards. [ ]: non-standard residue; d: D form. The star is where a group is joined. PEG12 = NCCOCCOCCOCCOCCOCCOCCOCCOCCOCCOCCOCCOCCC(=O)O; γGlu = O=C(O)[C@H](CCC(=O)[*:2])N[*:1]; Stearoyl = CCCCCCCCCCCCCCCCCC(=O)*; Palmitoyl = CCCCCCCCCCCCCCCC(=O)*; αMeK = C[C@](N)(CCCCN)C(=O)O; αMeS = C[C@](N)(CO)C(=O)O; Nle = CCCC[C@H](N)C(=O)O; AEEA = NCCOCCOCC(=O)O; Aib = CC(C)(N)C(=O)O

In series [1] the target is T1, RXFP1 (Homo sapiens, UniProt Q9HBX9).
T1 construct: OVCAR5 cells expressing endogenous RXFP1; endogenous in cells; host or cells: OVCAR5 cells
T1 sequence (Q9HBX9 1-757): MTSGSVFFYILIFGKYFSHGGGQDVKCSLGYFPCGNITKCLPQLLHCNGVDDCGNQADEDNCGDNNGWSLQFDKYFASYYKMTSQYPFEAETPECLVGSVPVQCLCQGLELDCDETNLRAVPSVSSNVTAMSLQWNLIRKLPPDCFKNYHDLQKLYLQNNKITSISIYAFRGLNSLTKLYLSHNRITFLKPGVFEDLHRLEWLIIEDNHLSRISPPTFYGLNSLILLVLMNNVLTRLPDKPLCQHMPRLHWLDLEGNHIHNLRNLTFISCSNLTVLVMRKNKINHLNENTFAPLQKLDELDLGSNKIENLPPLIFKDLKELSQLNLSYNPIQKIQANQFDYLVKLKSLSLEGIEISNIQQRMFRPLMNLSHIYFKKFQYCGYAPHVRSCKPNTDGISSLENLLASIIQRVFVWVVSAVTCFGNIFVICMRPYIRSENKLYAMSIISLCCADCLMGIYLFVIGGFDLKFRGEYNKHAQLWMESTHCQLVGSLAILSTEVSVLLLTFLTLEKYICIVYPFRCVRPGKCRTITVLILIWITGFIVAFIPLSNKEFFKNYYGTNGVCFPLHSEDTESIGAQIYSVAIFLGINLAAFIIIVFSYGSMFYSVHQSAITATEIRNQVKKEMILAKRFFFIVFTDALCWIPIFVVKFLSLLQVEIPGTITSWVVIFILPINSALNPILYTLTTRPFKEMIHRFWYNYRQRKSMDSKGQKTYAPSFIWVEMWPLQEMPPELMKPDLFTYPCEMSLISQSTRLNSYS
The experiment in a line: OVCAR5 cAMP assay (HTRF), RXFP1 agonist activity. Conditions: for EC50: OVCAR5 cells, cAMP HTRF, read-out: EC50 (nM), OVCAR 5 cells (cAMP); for Emax: OVCAR-5, maximal cAMP relative to H2-relaxin maximum (100%), read-out: EMax, OVCAR 5 cells (cAMP). Type of series: cell-based. The essentials: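 cAMP accumulation readout: after 1 mM IBMX for 40 min, endogenous-RXFP1 OVCAR5 cells got rising peptide concentrations without FCS, 30 min, 37° C, then lysis with HTRF cAMP reagents. Nonlinear regression gave EC50; Emax expressed relative to H2-relaxin maximum, same occasion.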
A general note: Changes in cAMP serve as a functional read-out for many G protein-coupled receptors.

Series [2] is described as follows: Pharmacokinetic (PK) determination after i.v. or s.c. administration to rats. Type of series: in vivo, Sprague Dawley rats. Conditions: Rat PK; for half-life / Cmax / Tmax / bioavailability: plasma; for half-life: read-out: T½ (converted); for Cmax / Tmax: sc, 3 mg/kg s.c.; for bioavailability: subcutaneous, 3 mg/kg s.c. vs 1 mg/kg i.v., dose-corrected AUC ratio. Here is the method:
Prior to the testing of a peptide batch, its purity (HPLC-UV) was determined. Dose was corrected for presence of salts, solvent and purity.
Sprague Dawley rats were dosed with study peptide at a dose of 1 mg/kg intravenously (i.v.) or 3 mg/kg subcutaneously (s.c.) as a solution in PBS (0.2 mg/ml and 0.6 mg/ml respectively).
Plasma samples were analyzed after protein precipitation via liquid chromatography mass spectrometry (LC/MS).
PK parameters and half-life were calculated using Phoenix 64 (WinNonlin 6.4)-Pharsight (Certara™) (non-compartment model). Values below the limit of quantification (BLQ) were replaced by zero for subsequent calculations and PK analysis.
T½: in-vivo half life, time required for test compound plasma concentration to be divided by two during the PK experiment.
C0: Extrapolated test compound plasma concentration at t=0 time point (i.v. route).
Cmax: maximal test compound plasma concentration at the indicated time point (s.c. route).
Tmax: Time point where Cmax is attained.
F %: s.c. vs i.v. bioavailability, dose-corrected area under curve (AUC) s.c. route divided by AUC i.v.

Setting [3] is: Sprague Dawley, iv, 1 mg/kg i.v., extrapolated plasma concentration at t=0, read-out: C0.
[4] abbreviates: Sprague Dawley, iv, 1 mg/kg i.v.

For orientation: EC50 means the concentration giving half of the maximal effect. One may read the Emax as the size of the effect at its maximum, as opposed to the concentration needed. For orientation: Cmax means the peak of the concentration-time curve. As usually defined, the Tmax is the time at which the peak concentration occurs. Turning to `CCCCCCCCCCCCCCCC(=O)N[C@@H](CCC(=O)NCCCC[C@H](NC(=O)CC[C@H](NC(=O)CC[C@H](NC(=O)CC[C@H](NC(=O)COCCOCCNC(=O)COCCOCCNC(=O)COCCOCCNC(=O)COCCOCCNC(=O)[C@H](CCCCNC(C)=O)NC(=O)[C@H](C)NC(=O)[C@H](CCCNC(=N)N)NC(=O)[C@](C)(CCCCN)NC(=O)[C@H](CO)NC(=O)[C@H](Cc1ccccc1)NC(=O)[C@@H](NC(=O)[C@H](CO)NC(=O)[C@H](CCCC)NC(=O)CNC(=O)[C@H](CCC(=O)O)NC(=O)C(C)(C)NC(=O)C(C)(C)NC(=O)[C@@H](NC(=O)[C@H](CCCCNC(C)=O)NC(=O)[C@H](C)NC(=O)[C@H](CCCNC(=N)N)NC(=O)[C@@H](NC(=O)[C@H](CCCCN)NC(=O)[C@H](CCC(=O)O)NC(=O)[C@H](CCCNC(=N)N)NC(=O)CNC(=O)[C@H](CCC(=O)O)NC(=O)[C@H](CC(C)C)NC(C)=O)C(C)C)[C@@H](C)CC)[C@@H](C)O)C(=O)O)C(=O)O)C(=O)O)C(N)=O)C(=O)O` [compound 149] (Ac-LEGREKVRAK(Ac)I[Aib][Aib]EG[Nle]STFS[αMeK]RAK(Ac)[AEEA][AEEA][AEEA][AEEA][γGlu][γGlu][γGlu]K([γGlu-Palmitoyl])-NH2), in series [1], the EC50 came to 0.11 nM and the Emax came out at 87%. Besides, the C0 in series [2] (setting [3]) was 3330 nM. In addition, the half-life in series [2] (setting [4]) was 4.33 h. In series [2] (Sprague Dawley), the concentration peaked (Cmax) at 2500 nM, the time to peak (Tmax) stood at 6 h and the bioavailability was determined as 128%.

Turning to `CCCCCCCCCCCCCCCC(=O)N[C@@H](CCC(=O)N[C@@H](CCC(=O)N[C@@H](CCC(=O)NCCCC[C@H](NC(=O)CCOCCOCCOCCOCCOCCOCCOCCOCCOCCOCCOCCOCCNC(=O)[C@H](CCCCNC(C)=O)NC(=O)[C@H](CCCCN)NC(=O)[C@H](CCCNC(=N)N)NC(=O)C(C)(C)NC(=O)[C@H](CO)NC(=O)[C@H](Cc1c[nH]c2ccccc12)NC(=O)[C@@H](NC(=O)[C@H](CO)NC(=O)[C@H](CCCC)NC(=O)CNC(=O)[C@H](CCC(=O)O)NC(=O)C(C)(C)NC(=O)C(C)(C)NC(=O)[C@@H](NC(=O)[C@H](CCCCNC(C)=O)NC(=O)C(C)(C)NC(=O)[C@H](CCCNC(=N)N)NC(=O)[C@@H](NC(=O)[C@H](CCCCN)NC(=O)[C@H](CCC(=O)O)NC(=O)[C@H](CCCNC(=N)N)NC(=O)CNC(=O)[C@H](CCC(=O)O)NC(=O)[C@H](CC(C)C)NC(C)=O)C(C)C)[C@@H](C)CC)[C@@H](C)O)C(N)=O)C(=O)O)C(=O)O)C(=O)O` [compound 27] (Ac-LEGREKVR[Aib]K(Ac)I[Aib][Aib]EG[Nle]STWS[Aib]RKK(Ac)[PEG12]K([γGlu-γGlu-γGlu-Palmitoyl])-NH2), in series [1], the EC50 is 0.3 nM and the Emax is 86%. Also, the “T½” value in series [2] (1 mg/kg i.v.) came to 6.90 h. In addition, in series [2] (setting [3]), the C0 is 3200 nM. Moreover, in series [2] (Sprague Dawley), the Cmax worked out at 1500 nM, the time to peak (Tmax) turned out to be 8 h and the bioavailability worked out at 62%.

As for `CCCCCCCCCCCCCCCCCC(=O)N[C@@H](CCC(=O)N[C@@H](CCC(=O)N[C@@H](CCC(=O)NCCOCCOCC(=O)NCCOCCOCC(=O)NCCOCCOCC(=O)NCCCC[C@H](NC(=O)[C@H](CCCCNC(C)=O)NC(=O)[C@H](CCCCN)NC(=O)[C@H](CCCNC(=N)N)NC(=O)C(C)(C)NC(=O)[C@H](CO)NC(=O)[C@H](Cc1ccccc1)NC(=O)[C@@H](NC(=O)[C@H](CO)NC(=O)[C@H](CCCC)NC(=O)CNC(=O)[C@H](CCC(=O)O)NC(=O)C(C)(C)NC(=O)C(C)(C)NC(=O)[C@@H](NC(=O)[C@H](CCCCNC(C)=O)NC(=O)[C@H](C)NC(=O)[C@H](CCCNC(=N)N)NC(=O)[C@@H](NC(=O)[C@H](CCCCN)NC(=O)[C@H](CCC(=O)O)NC(=O)[C@H](CCCNC(=N)N)NC(=O)CNC(=O)[C@H](CCC(=O)O)NC(=O)[C@H](CC(C)C)NC(C)=O)C(C)C)[C@@H](C)CC)[C@@H](C)O)C(N)=O)C(=O)O)C(=O)O)C(=O)O` [compound 112] (Ac-LEGREKVRAK(Ac)I[Aib][Aib]EG[Nle]STFS[Aib]RKK(Ac)K([AEEA-AEEA-AEEA-γGlu-γGlu-γGlu-Stearoyl])-NH2), in series [1], the EC50 was 0.32 nM and the Emax was 88%. The C0 in series [2] (setting [3]) is 3500 nM. The half-life in series [2] (setting [4]) was 3.3 h. In addition, in series [2] (Sprague Dawley), the Cmax turned out to be 2200 nM, the Tmax turned out to be 8 h and the bioavailability stood at 63%.

For `CCCCCCCCCCCCCCCC(=O)N[C@@H](CCC(=O)NCCCC[C@H](NC(=O)CC[C@H](NC(=O)CC[C@H](NC(=O)CC[C@H](NC(=O)COCCOCCNC(=O)COCCOCCNC(=O)COCCOCCNC(=O)COCCOCCNC(=O)[C@H](CCCCNC(C)=O)NC(=O)[C@H](CCCCN)NC(=O)[C@H](CCCNC(=N)N)NC(=O)[C@](C)(CCCCN)NC(=O)[C@H](CO)NC(=O)[C@H](Cc1ccccc1)NC(=O)[C@@H](NC(=O)[C@H](CO)NC(=O)[C@H](CCCC)NC(=O)CNC(=O)[C@H](CCC(=O)O)NC(=O)C(C)(C)NC(=O)C(C)(C)NC(=O)[C@@H](NC(=O)[C@H](CCCCNC(C)=O)NC(=O)[C@H](C)NC(=O)[C@H](CCCNC(=N)N)NC(=O)[C@@H](NC(=O)[C@H](CCCCN)NC(=O)[C@H](CCC(=O)O)NC(=O)[C@H](CCCNC(=N)N)NC(=O)CNC(=O)[C@H](CCC(=O)O)NC(=O)[C@H](CC(C)C)NC(C)=O)C(C)C)[C@@H](C)CC)[C@@H](C)O)C(=O)O)C(=O)O)C(=O)O)C(N)=O)C(=O)O` [compound 145] (Ac-LEGREKVRAK(Ac)I[Aib][Aib]EG[Nle]STFS[αMeK]RKK(Ac)[AEEA][AEEA][AEEA][AEEA][γGlu][γGlu][γGlu]K([γGlu-Palmitoyl])-NH2), in series [1], the EC50 was 0.4 nM and the Emax was found to be 99%. Further, in series [2] (setting [3]), the C0 is 3440 nM. The half-life in series [2] (setting [4]) is 5.4 h. Further, in series [2] (Sprague Dawley), the Cmax came out at 1670 nM, the Tmax amounted to 8 h and the bioavailability stood at 70%.

`CCCCCCCCCCCCCCCCCC(=O)N[C@@H](CCC(=O)N[C@@H](CCC(=O)N[C@@H](CCC(=O)N[C@@H](CCC(=O)NCCCC[C@H](NC(=O)CCOCCOCCOCCOCCOCCOCCOCCOCCOCCOCCOCCOCCNC(=O)[C@H](CCCCNC(C)=O)NC(=O)[C@H](CCCCN)NC(=O)[C@H](CCCNC(=N)N)NC(=O)[C@H](CCCCN)NC(=O)[C@](C)(CO)NC(=O)[C@H](Cc1c[nH]c2ccccc12)NC(=O)[C@@H](NC(=O)[C@H](CO)NC(=O)[C@H](CCCC)NC(=O)CNC(=O)[C@H](CCC(=O)O)NC(=O)C(C)(C)NC(=O)C(C)(C)NC(=O)[C@@H](NC(=O)[C@H](CCCCNC(C)=O)NC(=O)[C@H](C)NC(=O)[C@H](CCCNC(=N)N)NC(=O)[C@@H](NC(=O)[C@H](CCCCN)NC(=O)[C@H](CCC(=O)O)NC(=O)[C@H](CCCNC(=N)N)NC(=O)CNC(=O)[C@H](CCC(=O)O)NC(=O)[C@H](CC(C)C)NC(C)=O)C(C)C)[C@@H](C)CC)[C@@H](C)O)C(N)=O)C(=O)O)C(=O)O)C(=O)O)C(=O)O` [compound 39] (Ac-LEGREKVRAK(Ac)I[Aib][Aib]EG[Nle]STW[αMeS]KRKK(Ac)[PEG12]K([γGlu-γGlu-γGlu-γGlu-Stearoyl])-NH2): in series [1], the EC50 stood at 0.03 nM and the Emax came out at 91%. The C0 in series [2] (setting [3]) is 4100 nM. In addition, the half-life in series [2] (setting [4]) was 3.7 h. Also, in series [2] (Sprague Dawley), the Cmax worked out at 1570 nM, the Tmax came out at 8 h and the bioavailability amounted to 62%.

“H2-Relaxin: 6-kDa peptidic hormone of 53 amino acids; chain A (SEQ ID NO: 194) and chain B (SEQ ID NO: 195) cross-linked by disulfide bonds”: in series [2] (1 mg/kg i.v.), the “T½ (in-vivo half life)” value is 0.46 h. Also, the C0 in series [2] (1 mg/kg i.v., read-out: C0 (extrapolated plasma concentration at t=0)) is 870 nM.
